{
  "source": "patent EP2487185A1",
  "about": "“Hexapeptide with improved activity in the repair of cellular DNA of dermal cells” (Clinuvel Pharmaceuticals Limited, priority 2011, dated 2012)",
  "type_in_all_cases": "cell-based, human",
  "key": {"[1]": {"tested_on": "lightly pigmented strain 1563c and strain 102b", "test": "Ultrastructural visualization of DOPA-stained HM (electron microscopy)", "settings": "0.1 nM or 1 nM CUV9900 or 1 nM MSH; strains 1563c and 102b", "protocol": "With reference to Figs. 14 and 15, two melanocytic strains, a lightly pigmented strain 1563c of Fig. 14 and strain 102b of Fig. 15 were plated in 4-well chamber slides and treated […] with either 0.1 nM or 1 nM CUV9900 or 1 nM MSH for a total of 6 days. Cells were processed for electron microscopy in the presence or absence of histochemical reaction with DOPA. Microtome sections were analyzed in a JEOL JEM-1230 transmission electron microscope and photomicrographs (15,000 X) of the perinuclear area and dendrites were taken for each experimental group."}, "melanocytes strain 105c": {"tested_on": "melanocytes strain 105c", "test": "cAMP levels (125I radioimmunoassay), dose-response", "settings": "45 min, 0.1 mM IBMX", "protocol": "(§1) Dose-response experiments were carried out on three melanocytic strains, namely strains 1513c, 1505b and 105c melanocytes were treated with 1 pM-10 nM CUV9900 or NDP-MSH, or with 0.1-10 nM MSH for 45 minutes in the presence of 0.1 mM isobutyl methylxanthine (IBMX). The results obtained from strain 1513c are shown in Fig. 3, the results obtained from strain 1505b are shown in Fig. 5a and the results obtained from strain 105c are shown in Fig. 5b. The strains 1505b and 1513c were obtained from the same human adult while the strain 105c was obtained from another human adult. Cyclic AMP is the second messenger for the melanocortin-1 receptor, and assessment is usually performed indicating cellular activity reflective of melanogenesis. Cyclic AMP levels were determined using ^125I-labeled radioimmunoassay kit (Perkin Elmer, Waltham, MA), in human melanocytes that were treated with 0 (control), 0.1-10.0 nM α-MSH, or 0.001-10 nM NDP-MSH or 0.001-10.0 nM CUV 9900 for 45 min. in the presence of 0.1 mM IBMX, a phosphodiesterase inhibitor to prevent cAMP degradation. Triplicate wells were included in each group, and duplicate samples from each well were assayed for cAMP levels. Each data point is the mean percent of control of 6 determinations/group ±S.E."}, "melanocytes strain 1505b": {"tested_on": "melanocytes strain 1505b", "test": "cAMP levels (125I radioimmunoassay), dose-response", "settings": "at 1 nM, 45 min, 0.1 mM IBMX", "protocol": "as §1"}, "melanocytic strain 10.3c": {"tested_on": "melanocytic strain 10.3c", "test": "UV-induced generation of hydrogen peroxide (luminol luminescence)", "settings": "1 nM, 105 mJ/cm^2 UV, 0, 30 and 45 minutes after UV", "text": "With reference to Figs. 10 and 11, melanocytes were irradiated with a bank of FS 20 lamps, with 75% emission in the UVB, and 25% emission in the UVA spectra, with peak emission at 313 nm wavelength. Any emission of UVC rays from the UV source (FS 20 lamps) was blocked by Kodacel filter. Prior to irradiation, the culture medium was replaced by PBS, which was removed after UV exposure, and fresh medium added.\nMelanocytes were irradiated with 105 mJ/cm^2 UV, and treated immediately while in PBS with 0, 1 nM α-MSH or 1 nM CUV9900. Generation of hydrogen peroxide, representative of reactive oxygen species (ROS), was determined by measuring the luminescence of luminol at 0, 30, and 45 min after UV exposure. Triplicate dishes were included in each group, and duplicate samples from each dish were used for measurement of hydrogen peroxide at each time point. Each data point represents the mean of 6 determinations/group ±S.E."}, "strains 1505b and 1513c [2]": {"tested_on": "strains 1505b and 1513c", "test": "Cell proliferation as a measure of stability, overall", "settings": "all experiments on both strains 1505b and 1513c", "protocol": "(§2) With continued reference to Figs. 7, 8 and 9, to determine the stability of CUV9900 versus that of NDP-MSH and α-MSH, melanocytes were treated with 1 nM of each peptide, namely with CUV9900, NDP-MSH and α-MSH, for a total of 6 days, or with 1 nM peptides that were incubated for 5 hours at 37 °C prior to addition to the cultures, every other day, for a total of 6 days. Tyrosinase activity was measured at the end of treatment. In the experiments, cell number represents the mean percent of control of 3 determinations/ group ±SE, and tyrosinase activity data represent the mean percent of control of 6 determinations ±S.E. It should be noted that for the sake of reproducibility the experiment of strain 1513c of Fig. 9 was performed once more 6 months later than the experiment of Fig. 7.\nPeptides were incubated at 37 degrees Celsius for 5 hours and then split into groups. Cell proliferation was a measure of stability, whereby the experiments on strain 1513c were divided in period 1 and 2 under standard conditions."}, "melanocyte strain 1505b": {"tested_on": "melanocyte strain 1505b", "test": "Tyrosinase activity, dose-response, 6 days treatment", "protocol": "Dose-response experiments were carried out on another adult strain 102b which is shown in Fig. 6 and on the strain 1505b which is a melanocyte strain: melanocytes were treated with 0.001-10 nM CUV9990 or NDP-MSH, or 0.1-10 nM MSH for a total of 6 days, with the culture medium changed and fresh peptide added every other day. Cell numbers as well as tyrosinase activity were then determined. Tyrosinase activity was calculated first at activity/10^6 cells, and then as % of control. Twenty-four hours prior the end of the experiment, melanocytes received ^3H-tyrosinase (0.7 µCi/ml medium). The conditioned medium from each dish was collected to be assayed for tyrosinase activity, and the cell numbers were determined using a Coulter Counter. Triplicate dishes were included in each group, and duplicate samples from each dish were assayed for tyrosinase activity. Each data point is the mean percent of control of 6 determinations/group ±S.E."}, "strains 1505b and 1513c [3]": {"tested_on": "strains 1505b and 1513c", "test": "Tyrosinase activity as a measure of stability, overall", "protocol": "as §2\nMelanocytes were treated for 3 days with the designated concentrations of CUV9900, NDP-MSH, or MSH, then maintained in absence of peptides for 4 days. Tyrosinase activity was determined 3 days after treatment."}},
  "note": "Non-standard residues stand in square brackets, D forms with d. Nle = CCCC[C@H](N)C(=O)O",
  "data": [
    {"substance": "Ac-Nle-Glu His-D-Phe-Arg-Trp-NH2 (Ac-[Nle]EH[dF]RW-NH2; SMILES CCCC[C@H](NC(C)=O)C(=O)N[C@@H](CCC(=O)O)C(=O)N[C@@H](Cc1c[nH]cn1)C(=O)N[C@H](Cc1ccccc1)C(=O)N[C@@H](CCCNC(=N)N)C(=O)N[C@@H](Cc1c[nH]c2ccccc12)C(N)=O) [CUV9900, hexapeptide, alpha-MSH analogue]", "values": [
      {"measurement": "melanosomes, electron microscopy", "setting": "[1]", "value": "increased mature (stage IV) melanosomes in the perinuclear area and more so in dendrites"},
      {"measurement": "elevation of cAMP, comparison with NDP", "setting": "melanocytes strain 105c; 0.01 nM and 0.1 nM", "value": "less elevation of cAMP in comparison to 0.01 nM and 0.1 nM NDP"},
      {"measurement": "cAMP, comparison with MSH", "setting": "melanocytes strain 105c; 0.1 nM, 1 nM and 10 nM", "value": "significantly higher than 0.1 nM, 1 nM and 10 nM MSH"},
      {"measurement": "cAMP, potency comparison", "setting": "melanocytes strain 1505b", "value": "more potent than MSH"},
      {"measurement": "UV-induced hydrogen peroxide generation", "setting": "melanocytic strain 10.3c", "value": "significant reduction of UV-induced hydrogen peroxide generation"},
      {"measurement": "more cell proliferation and stability than MSH", "setting": "strains 1505b and 1513c [2]", "value": 2.9, "unit": "%"},
      {"measurement": "more cell proliferation and stability than NDP-MSH", "setting": "strains 1505b and 1513c [2]", "value": 4.0, "unit": "%"},
      {"measurement": "effect on tyrosinase activity, comparison with NDP-MSH", "setting": "melanocyte strain 1505b", "value": "equivalent to that of NDP-MSH"},
      {"measurement": "minimal effective dose (tyrosinase activity)", "setting": "melanocyte strain 1505b; 6 days treatment", "value": 1, "unit": "pM"},
      {"measurement": "superior tyrosinase activity in comparison to MSH", "setting": "strains 1505b and 1513c [3]", "value": 42.5, "unit": "%"},
      {"measurement": "superior tyrosinase activity in comparison to NDP-MSH", "setting": "strains 1505b and 1513c [3]", "value": 19.8, "unit": "%"}
    ]}
  ]
}
